From US20120184504A1, “"The Use of a PAR-1 Antagonist in Combination with a P2Y12 ADP Receptor Antagonist for Inhibition of Thrombosis"” (priority 2009, published 2012) come the findings set out here.

Structures are written as SMILES.

Series [1] has as its system platelet aggregation induced by thromboxane A2 mimetic U46619 (10 μM). The series can be described thus: Ex vivo whole blood platelet aggregation induced by U46619. Type of series: in vivo, cynomolgus monkeys. Here is the method: (§1) Animals instrumented to produce CFRs were administered SCH 602539, cangrelor, or a combination of SCH 602539 and cangrelor. The dosing regimens of SCH 602539 were selected to provide a broad range of inhibition of platelet aggregation induced by 1 μM thrombin receptor agonist peptide (TRAP), whereas the doses of cangrelor were selected to achieve 50%-60% inhibition of platelet aggregation induced by 10 μM ADP (the degree of inhibition obtained with clopidogrel). Group 1 received drug vehicle only (20% hydroxypropyl betacyclodextran or saline, 2 mL i.v.). Group 2 received SCH 602539 dissolved in 20% hydroxypropyl betacyclodextran administered as sequential i.v. boluses of 0.1, 0.3, or 1 mg/kg, at 30-minute intervals. Group 3 received cangrelor dissolved in saline and administered as an intravenous infusion of 0.1, 0.2, or 0.3 μg/kg/min for 30 minutes each. Group 4 received a combination of SCH 602539 bolus plus cangrelor infusion (at respective doses of: 1) 0.05 mg/kg+0.05 μg/kg/min; 2) 0.1 mg/kg+0.1 μg/kg/min; and 3) 0.15 mg/kg+0.1 μg/kg/min. The three dose regimens within each group were administered sequentially over the consecutive 30-minute periods coinciding with the re-induction of endothelial injury. Study drug or vehicle was administered after stable CFRs were achieved, and upon the completion of a 30-minute baseline CFR collection period, drug(s) or vehicle were administered incrementally (every 30 minutes) either as a bolus (SCH 602539) or as an infusion (cangrelor), and their effects on CFRs were monitored in the next three 30-minute observation periods. Blood samples (3 mL) were collected from the femoral arterial catheter at the end of each 30-minute observation period for assessment of ex vivo platelet aggregation and coagulation parameters.
(§2) Platelet aggregation studies were performed ex viva on blood samples obtained from the monkeys subjected to the Folts model, using a ChronoLog whole blood aggregometer (Model 540VS, Havertown, Pa.). Briefly, 0.5 mL of blood was incubated with 0.5 mL of normal saline at 37° C. in a cuvette containing a stir bar for 2 minutes. Platelet agonists used in this study included TRAP (3 μM), ADP (10 μM), the thromboxane A2 mimetic U46619 (10 μM), and collagen (3 μg/mL). Platelet aggregation was monitored for 5 minutes following the addition of the agonist. The peak aggregation response was recorded in ohms. In addition, standard coagulation parameters, including prothrombin time (PT), activated partial thromboplastin time (APTT), and activated clotting time (ACT), were assessed.

A short description of series [2]: Activated clotting time (ACT) in whole blood, Folts model animals. The series is classed as in vivo, cynomolgus monkeys. The following applies: for ACT: i.v.; for effect on ACT: tested doses. Here is the method: as §1, §2
PT and APTT assays were performed with plasma, while the ACT assay was performed with whole blood. Data are presented as mean±SEM (n=5-6/group).

Take `CSCCNc1nc(SCCC(F)(F)F)nc2c1ncn2[C@@H]1O[C@H](COP(=O)(O)OP(=O)(O)C(Cl)(Cl)P(=O)(O)O)[C@@H](O)[C@H]1O` [Cangrelor]: the “Aggregation, U46619” value in series [1] (Cangrelor 0.1 μg/kg/min, baseline 15 ± 3) is on record as 12 ± 3 ohms; in series [1] (Cangrelor 0.2 μg/kg/min, baseline 15 ± 3), 10 ± 4 ohms; in series [1] (Cangrelor 0.3 μg/kg/min, baseline 15 ± 3), 10 ± 4 ohms. Further, the “effect on aggregation stimulated by 10 μM U46619” value in series [1] (cangrelor 0.2 and 0.3 μg/kg/min) is given as “did not interfere”. Moreover, the ACT is 79 ± 2.3 s in series [2] (Cangrelor 0.1 μg/kg/min × 30 min, whole blood, baseline 77 ± 3.7); 76 ± 1.7 s in series [2] (Cangrelor 0.2 μg/kg/min × 30 min, baseline 77 ± 3.7); 74 ± 3.5 s in series [2] (Cangrelor 0.3 μg/kg/min × 30 min, baseline 77 ± 3.7). Also, in series [2], the “effect on ACT” value is “no effect”.
Take `CCOC(=O)N[C@@H]1CC[C@@H]2[C@@H](C1)C[C@H]1C(=O)O[C@H](C)[C@H]1[C@H]2/C=C/c1ccc(-c2ccccn2)cn1` [SCH 602539]: the “Aggregation, U46619” value in series [1] (SCH 602539 0.1 mg/kg, baseline 20 ± 5) is recorded as 17 ± 3 ohms; in series [1] (SCH 602539 0.3 mg/kg, baseline 20 ± 5) it was 19 ± 4 ohms; in series [1] (SCH 602539 1.0 mg/kg, baseline 20 ± 5) it was 21 ± 5 ohms. The “effect on aggregation induced by 10 μM U46619” value in series [1] (SCH 602539 0.3 mg/kg and 1 mg/kg) is on record as “did not affect”. Further, the ACT in series [2] (SCH 602539 0.1 mg/kg, bolus, whole blood, baseline 79 ± 5.9) was determined as 73 ± 2.2 s; in series [2] (SCH 602539 0.3 mg/kg, bolus, baseline 79 ± 5.9), 71 ± 4.4 s; in series [2] (SCH 602539 1.0 mg/kg, bolus, baseline 79 ± 5.9), 67 ± 4.9 s. In addition, the “effect on ACT” value in series [2] is reported as “no effect”.
